Where “and” joins values, the source holds several entries; their conditions need not be identical. Equal values may be shown once.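 Cells were grown in 96-well plates and exposed to each compound for 48 hours at five concentrations; endpoints were interpolated linearly between bracketing concentrations, or set to the highest concentration if not reached. GI50 marks 50% less growth. TGI denotes the concentration required for complete inhibition of growth.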
How the values were obtained:
Assay in all cases: DTP human tumour cell line panel, 48 h
A498 renal = system: A498 renal
CAKI-1 renal = system: CAKI-1 renal
COLO 205 colon = system: COLO 205 colon
LOX IMVI melanoma = system: LOX IMVI melanoma
NCI-H226 lung = system: NCI-H226 lung
OVCAR-3 ovarian = system: OVCAR-3 ovarian
PC-3 prostate = system: PC-3 prostate
SK-MEL-5 melanoma = system: SK-MEL-5 melanoma
SNB-19 CNS = system: SNB-19 CNS
U251 CNS = system: U251 CNS

SMILES | GI50 (A498 renal) | TGI (A498 renal) | GI50 (CAKI-1 renal) | TGI (CAKI-1 renal) [µM] | GI50 (COLO 205 colon) | TGI (COLO 205 colon) | GI50 (LOX IMVI melanoma) | TGI (LOX IMVI melanoma) | GI50 (NCI-H226 lung) | TGI (NCI-H226 lung) [µM] | GI50 (OVCAR-3 ovarian) | TGI (OVCAR-3 ovarian) [µM] | GI50 (PC-3 prostate) | TGI (PC-3 prostate) [µM] | GI50 (SK-MEL-5 melanoma) | TGI (SK-MEL-5 melanoma) | GI50 (SNB-19 CNS) | TGI (SNB-19 CNS) [µM] | GI50 (U251 CNS) | TGI (U251 CNS) [µM]
Cn1cc(C2=C(c3cn(CCCCCO)c4ccccc34)C(=O)NC2=O)c2ccccc21 | 4.18 µM | 14.3 µM | 6.34 µM | > 23.3 | 3.89 µM | 11.4 µM | 4.99 µM | > 19.4 µM | 5.03 µM | 15.8 | 5.48 µM | 17.3 | 6.88 µM | > 24.1 | 3.29 µM | 6.82 µM | 8.41 µM | > 23.2 | 5.98 µM | > 17.3
CC(=O)OCCCC#CC#Cc1cccc(=O)o1 | 23.9 µM | 39.4 µM | 13.6 µM | 28.3 | 19.4 µM | 41.8 µM | 15.8 µM | 54 µM | 20.8 µM | 52.8 | 2.89 µM | 14.2 | 18.4 µM | 44.4 | 16.1 µM | 32.6 µM | 25.6 µM | 67.7 | 23.9 µM | 54.3
C=C1C(=O)C2=CC1CCC(=O)C1(C)CCC(OC(C)=O)C(C)(C)C1CC2O (stereo not given) |  | 12.6 µM |  | 6.2 |  | 2.47 µM |  | > 22.5 µM |  | 31.9 |  | 15.8 |  | 28.8 |  | 6.09 µM |  | 15 |  | > 47.1
NCCSC(c1ccccc1)(c1ccccc1)c1ccccc1 | 1.03 µM | 8.39 µM | 3.51 µM | 16.1 | 0.435 µM | 1.69 µM | 1.42 µM | 2.9 µM | 4.79 µM | 22.7 | 1.52 µM | 6.13 | 1.36 µM | 11.5 | 1.01 µM | 2.25 µM | 5.36 µM | 20.1 | 0.373 µM | 1.72
CC1Cc2ccccc2N1C(=O)Cc1nc(N2CCOCC2)cc(=O)[nH]1 (stereo not given) | 0.026 µM and 0.0929 µM | 0.189 µM and 0.559 µM | 10.5 µM and 28 µM | > 100 | 17.4 µM and 53.8 µM | 46.2 µM and > 100 µM | 11.6 µM and 16.7 µM | 73.7 µM and > 100 µM | 36.4 µM and 32.5 µM | > 100 | 6.37 µM and 12.8 µM | > 100 | 2.47 µM and 5.2 µM | > 100 | 13.4 µM and 34.5 µM | 34.1 µM and > 100 µM | 25.3 µM and 45.8 µM | > 100 | 21.8 µM and 45.9 µM | > 100
Cc1ccc(OCCOCCOCCOCCOCCOc2ccc(C)n(O)c2=S)c(=S)n1O | 0.149 µM | 3.88 µM | 0.0453 µM | > 100 | 0.0428 µM | > 100 µM | 0.054 µM | 21.8 µM | 0.0576 µM | 14.7 | 0.0377 µM | 18.7 | 0.345 µM | > 100 | 0.0497 µM | 2.89 µM | 0.118 µM | > 100 | 0.0633 µM | > 100

Reference: PubChem BioAssay (NCI)
